Assay results taken from patent publication US6967196B1, “Sulfonamide compounds and uses thereof” (Bristol-Myers Squibb Company, priority 1999, dated 2005).
Where a name gives a salt, the structure may show the parent alone. Read-outs that look alike come from different tables or passages of the source. Each block holds one compound with its values, some of them ahead of it.

Tested on: amyloid β production in transfected H4 (human neuroglioma) cells stably expressing APP constructs
Test: In vitro cell-based assay of inhibitors of amyloid β production (ELISA)
Settings: amyloid β in medium by ELISA, read-out: ACTIVITY (IC50, inhibition of amyloid β production)
Summary of the method: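 Sandwich ELISA read-out: Aβ in conditioned medium captured via C-terminal epitope mAb, detected with N-terminus-specific rabbit polyclonal, quantified from a standard curve. Compounds 10-100 μM, ~16 h exposure. Active = ≥50% inhibition vs control without significant cytotoxicity; dose-response follows.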

[1] = transfected H4 cells stably expressing APP, approximately 16 hours incubation
[2] = transfected H4 cells stably expressing APP constructs, approximately 16 hours incubation
[3] = Homo sapiens, 16 h, transfected H4 cells expressing APP, approximately 16 hours incubation
[4] = transfected H4 cells stably expressing APP, approx. 16 h incubation

Compound: CCS(=O)(=O)CCC[C@@H](C)N(c1cc(Cl)ccc1CO)S(=O)(=O)c1ccc(Cl)cc1 [Example 1217, 4-chloro-N-[5-chloro-2-(hydroxymethyl)phenyl]-N-[1(R)-methyl-(4-ethylsulfonyl)butyl]benzenesulfonamide]
IC50 [2]: ≤ 25 nM

Compound: N-{2-[2-(1-{[(4-chlorophenyl)sulfonyl]-2,5-difluoroanilino}ethyl)phenoxy]ethyl}-N-ethyl-3-methylbutanamide [Example 694]
IC50 [4]: 100 to 500 nM

Compound: N-{3-[2-(1-{[(4-chlorophenyl)sulfonyl]-2,5-difluoroanilino}ethyl)phenoxy]propyl}-3,4,5-trimethoxybenzamide [Example 651]
IC50 [4]: 100 to 500 nM

Compound: C[C@H](COC(=O)NCCCn1ccnc1)N(c1cc(F)ccc1F)S(=O)(=O)c1ccc(Cl)cc1 [Example 1239, 4-Chloro-N-(2,5-difluorophenyl)-N-[2-[[N′-[3-(1H-imidazol-1-yl)propylamino]carbonyl]oxy]-(R)-1-methylethyl]benzenesulfonamide]
IC50 [2]: ≤ 25 nM

Compound: N-{3-[2-(1-{[(4-chlorophenyl)sulfonyl]-2,5-difluoroanilino}ethyl)phenoxy]propyl}-4-fluorobenzamide [Example 679]
IC50 [4]: 100 to 500 nM

Compound: N-{4-[2-(1-{[(4-chlorophenyl)sulfonyl]-2,5-difluoroanilino}ethyl)phenoxy]butyl}-3-cyclopentyl-N-ethylpropanamide [Example 943]
IC50 [1]: > 500 nM

Compound: 3,5-dichloro-N-{3-[2-(1-{[(4-chlorophenyl)sulfonyl]-2,5-difluoroanilino}ethyl)phenoxy]propyl}-N-methylbenzamide [Example 950]
IC50 [1]: > 500 nM

Compound: N-{3-[2-(1-{[(4-chlorophenyl)sulfonyl]-2,5-difluoroanilino}ethyl)phenoxy]propyl}-N-methyl-1-naphthamide [Example 966]
IC50 [1]: > 500 nM

Second part, the compound after the results:

IC50 [1]: > 500 nM
Compound: O=S(=O)(c1ccc(Cl)cc1)N(Cc1ccccc1OCCCN1CCCCC1)[C@H]1CC2CCC1C2 (stereo partly drawn) [Example 969, N-{(2S)-bicyclo[2.2.1]hept-2-yl]-4-chloro-N-{2-[3-(1-piperidinyl)propoxy]benzyl}benzenesulfonamide hydrochloride]

IC50 [1]: 100 to 500 nM
Compound: 3-bromo-N-{3-[2-(1-{[(4-chlorophenyl)sulfonyl]-2,5-difluoroanilino}ethyl)phenoxy]propyl}-N-methylbenzenesulfonamide [Example 806]

IC50 [3]: > 500 nM
Compound: C[C@H](C(=O)NCCOc1ccccc1)N(c1cc(Cl)ccc1F)S(=O)(=O)c1ccc(Cl)cc1 [Example 1318]

IC50 [1]: > 500 nM
Compound: N-{3-[2-({[(4-chlorophenyl)sulfonyl]-2,5-difluoroanilino}methyl)phenoxy]propyl}-N-methyl-4-(trifluoromethyl)benzamide [Example 898]

IC50 (Homo sapiens, 16 h, transfected H4 cells stably expressing APP, approximately 16 hours incubation): > 500 nM
Compound: O=S(=O)(c1ccc(Cl)cc1)N(Cc1ccccc1OCCCN1CCSCC1)c1ccccc1 [Example 937, 4-chloro-N-phenyl-N-{2-[3-(4-thiomorpholinyl)propoxy]benzyl}benzenesulfonamide hydrochloride]

IC50 [3]: ≤ 25 nM
Compound: CCN(CC)C(=O)OC[C@@H](C)N(c1cc(Cl)ccc1CO)S(=O)(=O)c1ccc(Cl)cc1 [Example 1283]

IC50 [3]: 100 to 500 nM
Compound: C[C@H](C(=O)NCC(C)(C)CO)N(c1cc(Cl)ccc1F)S(=O)(=O)c1ccc(Cl)cc1 [Example 1328]

IC50 [4]: 100 to 500 nM
Compound: (2E)-1-N-{3-[2-({[(4-chlorophenyl)sulfonyl]-2,5-difluoroanilino}methyl)phenoxy]propyl}-N-methyl-2-butenamide [Example 783]

IC50 [1]: > 500 nM
Compound: (2R, 3R)-2,4-bis[(4-methylbenzoyl)oxy]butanedioic acid compound with 4-chloro-N-(2,5-difluorophenyl)-N-((1R)-1-{2-[3-(1H-imidazol-1- [Example 1049]

IC50 [2]: > 10000 nM
Compound: 4-chloro-2-({[(4-chlorophenyl)sulfonyl]anilino}methyl)phenyl trifluoromethanesulfonate [Example 1090]

IC50 [3]: > 500 nM
Compound: C[C@H](C(=O)NCCC(c1ccccc1)c1ccccc1)N(c1cc(Cl)ccc1F)S(=O)(=O)c1ccc(Cl)cc1 [Example 1302]
